Laboratory results: patent publication US20020107193A1, “Therapeutic uses for IP3 receptor-mediated calcium channel modulators” (priority 2000, published 2002)

Legend:
[1] = tested on: CREB; assay: EMSA of CREB binding activity in cultured primary cortical neurons; format: cell-based, rat
Method: Cerebral cortices were removed from embryonic day 18 Sprague-Dawley rats (Harlan, Indianapolis, Ind.). Cells were dissociated as described previously (Mattson et al., 1995, J. Neurochem. 65:1740-1751.) and were seeded into polyethyleneimine-coated 60 mm culture dishes containing Eagle's Minimum Essential Medium supplemented with 26 mM NaHCO3, 40 mM glucose, 20 mM KCl, 1 mM sodium pyruvate, 10% (v/v) heat-inactivated fetal bovine serum (Sigma, St. Louis, Mo.), and 0.001% gentamycin sulfate. After a 3-5 h incubation period to allow for cell attachment, the medium was replaced with 2 ml of Neurobasal Medium with B27 supplements (GIBCO Life Technologies, Grand Island, N.Y.). Previous observations have shown that greater than 80% of the cells that attach in the first few hours after plating will survive longer than 7 days in Neurobasal Medium with no additional neurotrophic factors. Experimental treatments were performed on 7-to-9-day-old neuronal cultures in which there were approximately 5% contaminating glial cells.
Total cell extracts were prepared as described (Baeuerle and Baltimore, 1988, Cell 53:211-217). Briefly, cells were harvested, washed twice with ice-cold PBS and lysed for 30 min at 4° C. in Totex buffer (20 mM HEPES, pH 7.9, 350 mM NaC1, 20% glycerol, 1% NP-40, 1 mM MgC12, 0.5 mM EDTA, 0.1 mM EGTA, 5 mM DTT, 0.1% PMSF, 1% aprotinin, 4 μg/ml leupeptin). Samples were centrifuged at 14,000× g for 10 min and aliquots of supernatant were collected and stored at −70° C. until taken for assay. The protein content of the extract (supernatant) was measured by Bradford method (BIO-RAD Laboratories, Ercules, Calif., USA). […]
After 20 min at room temperature, reaction products were separated on a 7% non-denaturing polyacrylamide gel. […] Radioactivity of dried gels was detected by exposure to Kodak X-Omat film and images on the developed film were scanned into a computer using a UMAX 1200s scanner. […]
The possible involvement of endoplasmic reticulum pools of intracellular calcium regulated by IP3 receptors in controlling basal levels of NF-κB was investigated using Xestospongin C (XeC) a specific membrane permeable modulator of IP3-mediated Ca^2+release (Gafni et al., 1997, Neuron 19:723-733; Hu et al., 1999, J. Biol. Chem. 274:33995-33998), and thapsigargin (Tg), a specific inhibitor of ER calcium/ATPase (Thastrup et al., 1990, Proc. Natl. Acad. Sci. USA 87:2466-2470; Davidson and Varhol, 1995, J. Biol. Chem. 270:11731-11734.). Cultured primary cortical neurons were treated with either 1 μM XeC, 100 nM Tg or vehicle for 6 h and protein extracts were analyzed for NF-κB binding activity by EMSA electrophoresis.

[2] = tested on: [Ca^2+]i; assay: Intracellular calcium increase caused by glutamate in neurons; format: cell-based; settings: XeC treatment; data not shown
Excerpt: Therefore, all inducers of NFκB tested here have in common the ability to initiate calcium release through ER IP3 receptors, either through increasing intracellular calcium, activating production of IP3, or both.

SMILES: C1CCC[C@H]2CCCN3CC[C@@H](CCCCCC[C@@H]4CCCN5CC[C@@H](CC1)O[C@@H]45)O[C@@H]23 [XeC, Xestospongin C]
- binding activity of CREB, agent alone ([1]; cortical neurons, XeC 30 min pretreatment, 100 ng/ml TNFα 6 h, FIG. 2a): neither TNFα nor XeC alone affected the binding activity of CREB
- CREB binding activity ([1]; cultured primary cortical neurons, 6 h, 1 μM XeC or 100 nM Tg, data not shown): slightly augmented CREB binding activity; however, this was not statistically significant
- increase in [Ca^2+]i caused by glutamate [2]: did not erase the increase
